US20230009323A1, “COMPOUNDS AND METHODS FOR THE TREATMENT OF CRYPTOSPORIDIOSIS” (The Broad Institute, Inc., priority 2019, published 2023)
Read-outs that look alike come from different tables or passages of the source.

Assays:
[1] = tested on: C. parvum Iowa isolate (Bunch Grass Farm); test: C. parvum Iowa isolate (Bunch Grass Farm) growth in HCT-8 cells, high-content microscopy; type: cell-based; conditions: Cryptosporidium parvum
Method: A high-content microscopy assay was used to measure activity of compounds against C. parvum grown in the human adenocarcinoma cell line HCT-8 (ATCC) as disclosed in Bessoff, K., et al., Antimicrobial agents and chemotherapy 57, 1804-1814, doi:10.1128/AAC.02460-12 (2013), hereby incorporated by reference in its entirety. HCT-8 cells were cultured in 384-well clear-bottomed plates in 50 μL per well of RPMI 1640 medium ([…]), 120 U·mL^−1 penicillin, and 120 μg·mL^−1 streptomycin (ATCC) at 37° C. under 5% CO2. For compound screening and follow-up SAR studies, confluent cell monolayers were infected with C. parvum Iowa isolate oocysts [Bunch Grass Farm (Deary, Id.); ˜5,500 oocysts per well] after inducing excystation by treatment for 10 min at 37° C. with 10 mM HCl and then 10 min at 16° C. in 2 mM sodium taurocholate. Compounds were added at the indicated concentrations 3 h after monolayer infection. After incubation (37° C., 5% CO2) for 48 h, the cells were washed three times with PBS containing 111 mM D-Galactose and fixed by adding an equal volume of 8% formaldehyde in PBS. Cell monolayers were then prepared for microscopy by permeabilizing with 0.1% Triton X-100, washing three times with PBS with 0.1% Tween 20, blocking with 4% bovine serum albumin (BSA) in PBS for 2 h at 37° C. or 4° C. overnight, and staining parasitophorous vacuoles with 1.33 μg·mL^−1 of fluorescein-labeled Vicia villosa lectin (Vector Laboratories) diluted in 1% BSA in PBS with 0.1% Tween 20 for 1 h at 37° C. DNA was then stained by adding Hoechst 33258 (AnaSpec) at a final concentration of 0.09 mM diluted in water, followed by washing five times with PBS containing 0.1% Tween 20. Images were acquired using a Nikon Eclipse TE2000 epifluorescence microscope with an automated stage that was programmed using NIS-Elements Advanced Research software (Nikon) to focus on the center of each well and take a 3×3 composite image using an EXi Blue fluorescence microscopy camera (QImaging) with a 20× objective (numerical aperture 0.45). Nucleus and parasite images were exported separately as tif files and analyzed using NIH ImageJ and previously reported macros, and data analysis and graphing were done using GraphPad Prism software, version 6.01. […]

P. falciparum = P. falciparum blood-stage growth inhibition; type: cell-based; conditions: Plasmodium falciparum
Method: Pf EC50's were obtained using the procedure disclosed in Bessoff, K. et al. Antimicrobial agents and chemotherapy 58, 2731-2739, doi:10.1128/AAC.02641-13 (2014), hereby incorporated by reference in its entirety. Reduction in C. parvum oocysts/mg feces was determined in the C. parvum immunocompromised mouse model as described in the Examples.

C. parvum [2] = test: NOD SCID gamma mouse model of established cryptosporidiosis, fecal oocyst shedding by qPCR; type: in vivo, NOD SCID gamma mice; conditions: oral, 50 mg/kg every 24 h for 4 days
Description: FIG. 4A is a schematic of NOD SCID gamma (NSG) mouse model of established intestinal cryptosporidiosis. Intestinal C. parvum infection was established by oral gavage of ˜10^5 oocysts either 7 days (FIGS. 4B and C) or 14 days (FIG. 4D) prior to oral treatment with bicyclic azetidines, vehicle, or paromomycin (positive control). All data are the mean and SEM (n=4 mice per experimental group) of parasite shedding per mg of feces measured by qPCR with results for individual mice shown as superimposed data points. Data points for which no parasite DNA was detected are shown at the qPCR assay limit of detection (0.1 oocysts per mg feces).
NOD scid gamma mice (NOD.Cg-Prkdcscid Il2rgtmlWjl/Szj; Jackson Laboratory, Bar Harbor, Me.) (NSG) were used to model established Cryptosporidium infection. All NSG mouse studies were performed in compliance with animal care guidelines and with approval by the University of Vermont Institutional Animal Care and Use Committee. Mice were acquired at three to four weeks of age, and acclimatized for one week prior to infection by oral gavage of ˜10^5 C. parvum Iowa isolate (Bunch Grass Farms) oocysts. They were then treated at the specified times and dosages with each compound dissolved in 0.5% hydroxypropylmethyl cellulose, 0.5% Tween 80 (v/v) plus 5% DMSO.
This cryptosporidiosis infection model used 3-4 week old, freshly weaned, NOD SCID gamma mice orally infected with C. parvum oocysts (˜1×10^5). The infection was monitored by qPCR of feces with primers specific for C. parvum and data are shown as number of oocysts milligram^−1 of feces. Six days following infection and upon confirmation of parasite shedding by qPCR, the three compounds, negative and positive control were orally administered at 50 mg·kg^−1 (body weight) every 24 h for 4 days. (FIGS. 4A-D). […] We then performed a dose-ranging study with Compound 11 using the same immunocompromised mouse model and dosing regimens of 5, 20 and 40 mg·kg^−1 every 24 h for 4 days or 10 mg·kg^−1 every 24 h for 7 days. Mice were monitored for an additional 14 days for relapse of infection.

C. hominis (TU 502) = test: C. hominis TU502 growth in HCT-8 cells; type: cell-based; conditions: Cryptosporidium hominis
Method: (§1) Studies using farm C. parvum isolates and the C. hominis TU502 isolate were performed by Calibr at Scripps Research (La Jolla, Calif.) in 1,536-well plates using a slightly modified immunofluorescence assay as described in Love, M. S. et al. PLoS neglected tropical diseases 11, e0005373, doi:10.1371/journal.pntd.0005373 (2017), hereby incorporated by reference in its entirety. HCT-8 cell culture medium was replaced with RPMI 1640 medium supplemented with 2% heat-inactivated horse serum, 100 U·mL^−1 penicillin, and […] 24 h prior to infection with the indicated isolate. The C. parvum Iowa isolate was included as a reference in all experiments. Imaging was performed using a Cellnsight CX5 High Content screening platform (Thermo Scientific) with a 10× objective and acquisition of one microscopic field per well. Images were processed using HCS Studio Scan software, and the selected-object count (HCT-8 cells) and spot count (parasitophorous vacuoles) were analyzed in Genedata Screener (version 13.0; Standard). Dose-response curves and EC50 values were calculated using the Smart Fit function of Genedata Analyzer.

HEK293T cytotoxicity = type: cell-based; conditions: human, HEK293T cells
[3] = tested on: C. parvum (Field Isolate) WSU; test: C. parvum field isolate (WSU) growth in HCT-8 cells; type: cell-based; conditions: Cryptosporidium parvum
Method: as §1

HepG2 cytotoxicity = type: cell-based; conditions: human, HepG2 cells
[4] = tested on: C. parvum (Iowa) Sterling; test: C. parvum (Iowa) Sterling growth in HCT-8 cells; type: cell-based; conditions: Cryptosporidium parvum
Method: as §1

HepG2 cells = test: HepG2 cytotoxicity; type: cell-based; conditions: C. parvum Iowa isolate (1% FBS) EC50 compared to HepG2 CC50
[5] = tested on: C. parvum WT transgenic PheRS (wtL482); test: In vitro drug susceptibility in HCT-8 cells, luminescence, wild type transgenic; type: cell-based; conditions: Cryptosporidium parvum, HCT-8, 48 h, read-out: EC50, wild type transgenic
Method: (§2) The in vitro drug susceptibility assay using transgenic parasites expressing Nluc was performed as described in Vinyak et al. Briefly, host intestinal epithelial adenocarcinoma (HCT-8) cells grown in 96-well plates were infected with purified transgenic Nluc-expressing oocysts (1,000 oocysts per well) and incubated with different concentrations of Compound 11 for 48 hours. Culture supernatant was discarded from the wells after 48 hours, and 200 μl of NanoGlo lysis buffer containing 1:50 of NanoGlo substrate (Promega) was added to the wells. Lysates were transferred to white 96-well plates and luminescence was measured on a Glomax luminescence reader (Promega). EC50 values were calculated in GraphPad Prism software v7.
(§3) Oocysts from the mutant (mut482V) and wild type (wtL482) transgenic lines were purified as well as the parent strain (Bunchgrass) used to generate the transgenics. Sporozoites were excised from these oocysts and used to infect 96 well format HCT-8 cultures to perform in vitro drug susceptibility assays. Cultures were incubated for 48 hours in the presence of varying concentrations of Compound 11 and parasite growth was measured by establishing whole well luciferase activity to calculate EC50 values for each strain.

[6] = tested on: C. parvum mutant transgenic PheRS (mut482V); test: microbe, parasite or virus in culture; type: cell-based, Cryptosporidium parvum
Method: as §2, §3

C. parvum [7] = conditions: general statement or literature report; cited from earlier work
[8] = serum not given, read-out: C. parvum EC50
[9] = read-out: C. parvum (Iowa) (1% FBS) BGF EC50
[10] = read-out: C. parvum (Iowa) (10% FBS) BGF EC50

| SMILES | EC50 [1, 8] | EC50 (C. hominis (TU 502)) | EC50 [1, 9] | EC50 [1, 10] | EC50 [3] | EC50 [4] | reduction in oocyst shedding (oocysts per mg feces) (C. parvum [2]) | CC50 (HEK293T cytotoxicity) | CC50 (HepG2 cytotoxicity) | outcome of treatment in C. parvum infected NSG mice (C. parvum [7]) | also measured |
| --- | --- | --- | --- | --- | --- | --- | --- | --- | --- | --- | --- |
| COc1ccc(NC(=O)N2CCCCN3C[C@H](c4ccc(C#Cc5ccccc5)cc4)[C@@H]3C2)cc1 [Compound 19, (8R,9S)-N-(4-methoxyphenyl)-9-(4-(phenylethynyl)phenyl)-1,6-diazabicyclo[6.2.0]decane-6-carboxamide] |  | 0.055 µM | 0.036 µM | 0.062 µM | 0.096 µM | 0.031 µM |  | 25 µM | 10 µM |  | EC50 [5]: 0.0408 µM; fold shift in EC50, mutant transgenic vs wild type transgenic [6]: 9 fold; EC50 ([6]; Cryptosporidium parvum, HCT-8, 48 h, read-out: EC50, mutant transgenic): 0.371 µM |
| O=C(Nc1ccc(Cl)cc1)N1CCN(c2ccc3nncn3n2)CC1 [MMV665917] |  |  |  |  |  |  |  |  |  | curative |  |
| CC(C)/N=c1\cc2n(-c3ccc(Cl)cc3)c3ccccc3nc-2cc1Nc1ccc(Cl)cc1 [clofazimine] |  |  |  |  |  |  |  |  |  | show no improvement at all |  |
| NC[C@@H]1O[C@H](O[C@H]2[C@@H](O)[C@H](O[C@@H]3[C@@H](O)[C@H](N)C[C@H](N)[C@H]3O[C@H]3O[C@H](CO)[C@@H](O)[C@H](O)[C@H]3N)O[C@@H]2CO)[C@H](N)[C@@H](O)[C@@H]1O [paromomycin] |  |  |  |  |  |  |  |  |  | quickly relapse |  |

Now from value to compound, other results behind:

| EC50 [1, 8] | EC50 (C. hominis (TU 502)) | EC50 [1, 9] | EC50 [1, 10] | EC50 [3] | EC50 [4] | SMILES | reduction in oocyst shedding (oocysts per mg feces) (C. parvum [2]) | CC50 (HEK293T cytotoxicity) | CC50 (HepG2 cytotoxicity) | outcome of treatment in C. parvum infected NSG mice (C. parvum [7]) | also measured |
| --- | --- | --- | --- | --- | --- | --- | --- | --- | --- | --- | --- |
| 0.58 µM |  |  |  |  |  | COC[C@@]12CN(C(=O)Nc3ccc(OC)cc3)CCCCN1[C@H](CO)[C@@H]2c1ccc(C#Cc2ccccc2)cc1 [Compound 2, (8R,9S,10S)-10-(hydroxymethyl)-8-(methoxymethyl)-N-(4-methoxyphenyl)-9-(4-(phenylethynyl)phenyl)-1,6-diazabicyclo[6.2.0]decane-6-carboxamide] |  |  |  |  | EC50 (P. falciparum): 0.627 µM |
| < 0.073 µM |  |  |  |  |  | COc1ccc(NC(=O)N2CCCCN3[C@H](CO)[C@H](c4ccc(C#Cc5ccccc5)cc4)[C@@H]3C2)cc1 [Compound 9, (8R,9R,10S)-10-(hydroxymethyl)-N-(4-methoxyphenyl)-9-(4-(phenylethynyl)phenyl)-1,6-diazabicyclo[6.2.0]decane-6-carboxamide] | significant reduction in oocyst shedding |  |  |  |  |
| < 0.073 µM | 0.005 µM | 0.004 µM | 0.015 µM | 0.009 µM | 0.002 µM | COc1ccc(NC(=O)N2CCCCN3[C@H](COCCC(=O)O)[C@H](c4ccc(C#Cc5ccccc5)cc4)[C@@H]3C2)cc1 [Compound 10, 3-(((8R,9R,10S)-6-((4-methoxyphenyl)carbamoyl)-9-(4-(phenylethynyl)phenyl)-1,6-diazabicyclo[6.2.0]decan-10-yl)methoxy)propanoic acid] | significant reduction in oocyst shedding | > 40 µM | > 40 µM |  |  |
|  | 0.003 µM | 0.002 µM | 0.008 µM | 0.006 µM | 0.0006 µM | COc1ccc(NC(=O)N2CCCCN3[C@H](CN(C)C(C)=O)[C@H](c4ccc(C#Cc5ccccc5)cc4)[C@@H]3C2)cc1 [Compound 16, (8R,9S,10S)-N-(4-methoxyphenyl)-10-((N-methylacetamido)methyl)-9-(4-(phenylethynyl)phenyl)-1,6-diazabicyclo[6.2.0]decane-6-carboxamide] | greatest reduction in oocysts | 27 µM | 25 µM |  | selectivity index (HepG2 cells): > 10,000 |
|  | 0.004 µM | 0.006 µM | 0.007 µM | 0.006 µM | 0.005 µM | COc1ccc(NC(=O)N2CCCCN3[C@H](CN(C)S(C)(=O)=O)[C@H](c4ccc(C#Cc5ccccc5)cc4)[C@@H]3C2)cc1 [Compound 17, (8R,9R,10S)-N-(4-methoxyphenyl)-10-((N-methylmethylsulfonamido)methyl)-9-(4-(phenylethynyl)phenyl)-1,6-diazabicyclo[6.2.0]decane-6-carboxamide] | greatest reduction in oocysts | > 40 µM | > 40 µM |  |  |
|  | 0.002 µM | < 0.0004 µM |  | < 0.0004 µM | < 0.0004 µM | COc1ccc(NC(=O)N2C[C@@H](O)[C@@H](O)CN3[C@H](CS(C)(=O)=O)[C@H](c4ccc(C#Cc5ccccc5)cc4)[C@@H]3C2)cc1 [Compound 18, (3S,4R,8R,9R,10S)-3,4-dihydroxy-N-(4-methoxyphenyl)-10-((methylsulfonyl)methyl)-9-(4-(phenylethynyl)phenyl)-1,6-diazabicyclo[6.2.0]decane-6-carboxamide] |  | 6 µM | 8 µM |  |  |
